The values that follow are results of earlier work, collected in patent US6331660A, “Maize DIMBOA biosynthesis genes” (Dekalb Genetics Corporation, priority 1998, dated 2001).

The data set addresses T1, native E. coli α2β2 complex of tryptophan synthase α (TSA) and tryptophan synthase β (TSB) (Escherichia coli, UniProt P0A877).
T1 construct: by the native E. coli α2β2 complex
The note with it: conversion of indole-3-glycerol phosphate to indole, Weischet et al., 1976.

T1 sequence (P0A879 2-397): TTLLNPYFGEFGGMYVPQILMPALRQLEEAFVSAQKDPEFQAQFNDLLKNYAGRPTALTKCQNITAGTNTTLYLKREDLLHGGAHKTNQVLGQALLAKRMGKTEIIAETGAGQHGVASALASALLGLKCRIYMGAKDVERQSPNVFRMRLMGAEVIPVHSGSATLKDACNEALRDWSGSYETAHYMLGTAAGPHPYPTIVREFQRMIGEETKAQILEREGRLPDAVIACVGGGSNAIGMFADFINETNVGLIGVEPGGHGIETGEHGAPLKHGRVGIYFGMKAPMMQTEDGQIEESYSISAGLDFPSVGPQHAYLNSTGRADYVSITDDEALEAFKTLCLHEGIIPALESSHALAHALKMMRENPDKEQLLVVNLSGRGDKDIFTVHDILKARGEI
T1 sequence (P0A877 whole entry): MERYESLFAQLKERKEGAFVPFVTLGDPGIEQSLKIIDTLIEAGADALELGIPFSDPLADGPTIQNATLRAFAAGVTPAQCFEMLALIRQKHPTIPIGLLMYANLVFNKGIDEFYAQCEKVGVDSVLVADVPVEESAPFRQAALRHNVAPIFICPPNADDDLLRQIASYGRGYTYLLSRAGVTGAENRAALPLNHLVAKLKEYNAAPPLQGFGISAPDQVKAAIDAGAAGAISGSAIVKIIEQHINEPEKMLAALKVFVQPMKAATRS

By kcat is commonly meant the number of substrate molecules converted per active site and unit of time at saturation. A word on the Km: it is the substrate concentration at which the rate is half of its maximum. As to `O=P(O)(O)OCC(O)C(O)c1c[nH]c2ccccc12` (centres unmarked) [indole-3-glycerol phosphate], the kcat was 0.2 s⁻¹. Where the note is “read-out: Km^indole-3-glycerol phosphate”, the Km is 27 µM.
